In EP0908457B1, “3-(1,2-benzisothiazol- and isoxazol-5-Y1)-2,4(1H,3H)-pyrimidinedione or thione and 3-(1,2-benzisothiazol- and isoxazol-5-y1)-4(3H)-pyrimidinone or thione herbicidal agents” (BASF AKTIENGESELLSCHAFT, priority 1997, dated 1999):

Assays:
Format in all cases: in vivo
[1] = test system: Echinochloa oryzoides (Ard.) Fritsch.; test: Preemergence weed control under flooded paddy conditions, ECHORC (Watergrass (Calif.)); settings: preemergence, flooded paddy; for herbicidal effect rating, ECHORC: meaning of each grade not given here
[2] = test system: Cyperus serotinus, Rottb.; test: Preemergence weed control under flooded paddy conditions, CYPSE (Flatsedge); settings: preemergence; for herbicidal effect rating, CYPSE: meaning of each grade not given here
[3] = test system: Monochoria vaginalis, Presl.; test: Preemergence weed control under flooded paddy conditions, MOOVA (Monochoria); settings: preemergence, flooded paddy; for herbicidal effect rating, MOOVA: meaning of each grade not given here
Cyperus iria = test: Preemergence weed control under flooded paddy conditions, CYPIR (Rice Flatsedge); settings: preemergence, flooded paddy; for herbicidal effect rating, CYPIR: meaning of each grade not given here
Sagittaria pygmaea, L. = test: Preemergence weed control under flooded paddy conditions, SAGPY (Arrowhead (Pygmaea)); settings: preemergence, flooded paddy; for herbicidal effect rating, SAGPY: meaning of each grade not given here
[4] = Rate 0.0320 kg/ha, rated three to four weeks after treatment
[5] = Rate 0.0620 kg/ha, rated three to four weeks after treatment
[6] = Rate 0.1250 kg/ha, rated three to four weeks after treatment
[7] = Rate 0.2500 kg/ha, rated three to four weeks after treatment
[8] = 0.0320 kg/ha, rated three to four weeks after treatment
[9] = 0.0620 kg/ha, rated three to four weeks after treatment
[10] = 0.1250 kg/ha, rated three to four weeks after treatment
[11] = 0.2500 kg/ha, rated three to four weeks after treatment
[12] = Rate 0.0320 kg/ha, rated 3-4 weeks after treatment
[13] = Rate 0.0620 kg/ha, rated 3-4 weeks after treatment
[14] = Rate 0.1250 kg/ha, rated 3-4 weeks after treatment
[15] = Rate 0.2500 kg/ha, rated 3-4 weeks after treatment

Row | SMILES | herbicidal effect rating, ECHORC [1, 4] | herbicidal effect rating, ECHORC [1, 5] | herbicidal effect rating, ECHORC [1, 6] | herbicidal effect rating, ECHORC [1, 7] | herbicidal effect rating, CYPSE [2, 5] | ECHORC herbicidal rating [1, 8] | ECHORC herbicidal rating [1, 9] | ECHORC herbicidal rating [1, 10] | ECHORC herbicidal rating [1, 11] | MOOVA herbicidal rating [3, 8] | MOOVA herbicidal rating [3, 9] | MOOVA herbicidal rating [3, 10] | MOOVA herbicidal rating [3, 11] | CYPIR herbicidal rating (Cyperus iria; [8]) | CYPIR herbicidal rating (Cyperus iria; [9]) | CYPIR herbicidal rating (Cyperus iria; [10]) | CYPIR herbicidal rating (Cyperus iria; [11]) | SAGPY herbicidal rating (Sagittaria pygmaea, L.; [8]) | SAGPY herbicidal rating (Sagittaria pygmaea, L.; [9]) | SAGPY herbicidal rating (Sagittaria pygmaea, L.; [10]) | other results
1 | C=CCC(c1nsc2ccc(-n3c(=O)cc(C(F)(F)F)n(C)c3=O)cc12)S(C)(=O)=O (stereo not drawn) [Example 602, 2,4(1H,3H)-Pyrimidinedione, 1-methyl-3-{3-[1-(methylsulfonyl)-3-butenyl]-1,2-benzisothiazol-5-yl}-6-(trifluoromethyl)-] | 0.0 | 5.0 | 9.0 | 9.0 | 0.0 |  |  |  |  |  |  |  |  |  |  |  |  |  |  |  | herbicidal effect rating, CYPSE [2, 6]: 7.0; herbicidal effect rating, CYPSE [2, 7]: 9.0; herbicidal effect rating, MOOVA [3, 4]: 7.0; herbicidal effect rating, MOOVA [3, 5]: 7.0; herbicidal effect rating, MOOVA [3, 6]: 8.0; herbicidal effect rating, MOOVA [3, 7]: 9.0; herbicidal effect rating, CYPIR (Cyperus iria; [4]): 3.0; herbicidal effect rating, CYPIR (Cyperus iria; [5]): 3.0; herbicidal effect rating, CYPIR (Cyperus iria; [6]): 5.0; herbicidal effect rating, CYPIR (Cyperus iria; [7]): 5.0; herbicidal effect rating, SAGPY (Sagittaria pygmaea, L.; [4]): 0.0; herbicidal effect rating, SAGPY (Sagittaria pygmaea, L.; [5]): 0.0; herbicidal effect rating, SAGPY (Sagittaria pygmaea, L.; [6]): 0.0; herbicidal effect rating, SAGPY (Sagittaria pygmaea, L.; [7]): 3.0
2 | Cn1c(C(F)(F)F)cc(=O)n(-c2ccc3snc(COC(=O)c4ccc(Cl)nc4)c3c2)c1=O [Example 481, 2,4(1H,3H)-Pyrimidinedione, 3-[3-(hydroxymethyl)-1,2-benzisothiazol-5-yl]-1-methyl-6-(trifluoromethyl)-, 6-chloronicotinate (ester)] |  |  |  |  |  | 0.0 | 2.0 | 9.0 | 9.0 | 6.0 | 7.0 | 7.0 | 9.0 | 0.0 | 2.0 | 6.0 | 9.0 | 0.0 | 0.0 | 0.0 | CYPSE herbicidal rating [2, 11]: 6.0
3 | Cn1c(C(F)(F)F)cc(=O)n(-c2ccc3snc(COC(=O)c4ccno4)c3c2)c1=O [Example 475, 2,4(1H,3H)-Pyrimidinedione, 3-[3-(hydroxymethyl)-1,2-benzisothiazol-5-yl]-1-methyl-6-(trifluoromethyl)-, 5-isoxazolecarboxylate (ester)] |  |  |  |  |  | 0.0 | 0.0 | 2.0 | 3.0 | 9.0 | 9.0 | 9.0 | 9.0 | 4.0 | 6.0 | 9.0 | 9.0 | 0.0 | 4.0 | 6.0 | CYPSE herbicidal rating [2, 8]: 0.0; CYPSE herbicidal rating [2, 10]: 5.0; CYPSE herbicidal rating [2, 11]: 7.0; SAGPY herbicidal rating (Sagittaria pygmaea, L.; [11]): 7.0
4 | CCOC(=O)C1CCC(OC(=O)COc2ccc(C)cc2-c2nsc3ccc(-n4c(=O)cc(C(F)(F)F)n(C)c4=O)cc23)CC1 (single isomer, unassigned; isomer a) [Example 524, Acetic acid, {{2-{5-[3,6-dihydro-3-methyl-2,6-dioxo-4-(trifluoromethyl)-1(2H)-pyrimidinyl]-1,2-benzisothiazol-3-yl}-p-tolyl}oxy}-, ester with ethyl 4-hydroxycyclohexanecarboxylate, isomer A] |  |  |  |  |  |  |  |  |  |  |  |  |  |  |  |  |  |  |  |  | herbicidal effect rating, ECHORC [1, 12]: 7.0; herbicidal effect rating, ECHORC [1, 13]: 9.0; herbicidal effect rating, ECHORC [1, 14]: 9.0; herbicidal effect rating, ECHORC [1, 15]: 9.0; herbicidal effect rating, CYPSE [2, 12]: 0.0; herbicidal effect rating, CYPSE [2, 13]: 0.0; herbicidal effect rating, CYPSE [2, 14]: 2.0; herbicidal effect rating, CYPSE [2, 15]: 6.0; herbicidal effect rating, MOOVA [3, 12]: 9.0; herbicidal effect rating, MOOVA [3, 13]: 9.0; herbicidal effect rating, MOOVA [3, 14]: 9.0; herbicidal effect rating, MOOVA [3, 15]: 9.0; herbicidal effect rating, CYPIR (Cyperus iria; [12]): 2.0; herbicidal effect rating, CYPIR (Cyperus iria; [13]): 2.0; herbicidal effect rating, CYPIR (Cyperus iria; [14]): 4.0; herbicidal effect rating, CYPIR (Cyperus iria; [15]): 7.0; herbicidal effect rating, SAGPY (Sagittaria pygmaea, L.; [12]): 0.0; herbicidal effect rating, SAGPY (Sagittaria pygmaea, L.; [13]): 0.0; herbicidal effect rating, SAGPY (Sagittaria pygmaea, L.; [14]): 0.0; herbicidal effect rating, SAGPY (Sagittaria pygmaea, L.; [15]): 0.0
5 | Cn1c(C(F)(F)F)cc(=O)n(-c2ccc3snc(COC(=O)c4ccncc4)c3c2)c1=O [Example 463, 2,4(1H,3H)-Pyrimidinedione, 3-[3-(hydroxymethyl)-1,2-benzisothiazol-5-yl]-1-methyl-6-(trifluoromethyl)-, isonicotinate (ester)] |  |  |  |  |  | 2.0 | 6.0 | 9.0 | 9.0 | 7.0 | 9.0 | 9.0 | 9.0 | 5.0 | 6.0 | 9.0 | 9.0 | 0.0 | 3.0 | 5.0 | CYPSE herbicidal rating [2, 8]: 2.0; CYPSE herbicidal rating [2, 10]: 6.0; CYPSE herbicidal rating [2, 11]: 7.0; SAGPY herbicidal rating (Sagittaria pygmaea, L.; [11]): 7.0
6 | Cn1c(C(F)(F)F)cc(=O)n(-c2ccc3snc(COC(=O)Cc4ccccc4Cl)c3c2)c1=O [Example 402, 2,4(1H,3H)-Pyrimidinedione, 3-[3-(hydroxymethyl)-1,2-benzisothiazol-5-yl]-1-methyl-6-(trifluoromethyl)-, (o-chlorophenyl)acetate (ester)] | 0.0 | 0.0 | 3.0 | 4.0 | 0.0 |  |  |  |  |  |  |  |  |  |  |  |  |  |  |  | herbicidal effect rating, CYPSE [2, 6]: 0.0; herbicidal effect rating, CYPSE [2, 7]: 5.0; herbicidal effect rating, MOOVA [3, 4]: 7.0; herbicidal effect rating, MOOVA [3, 5]: 7.0; herbicidal effect rating, MOOVA [3, 6]: 9.0; herbicidal effect rating, MOOVA [3, 7]: 9.0; herbicidal effect rating, CYPIR (Cyperus iria; [4]): 0.0; herbicidal effect rating, CYPIR (Cyperus iria; [5]): 2.0; herbicidal effect rating, CYPIR (Cyperus iria; [6]): 3.0; herbicidal effect rating, CYPIR (Cyperus iria; [7]): 7.0; herbicidal effect rating, SAGPY (Sagittaria pygmaea, L.; [4]): 0.0; herbicidal effect rating, SAGPY (Sagittaria pygmaea, L.; [5]): 0.0; herbicidal effect rating, SAGPY (Sagittaria pygmaea, L.; [6]): 0.0; herbicidal effect rating, SAGPY (Sagittaria pygmaea, L.; [7]): 3.0
7 | Cn1c(C(F)(F)F)cc(=O)n(-c2ccc3snc(COC(=O)c4cccnc4Cl)c3c2)c1=O [Example 480, 2,4(1H,3H)-Pyrimidinedione, 3-[3-(hydroxymethyl)-1,2-benzisothiazol-5-yl]-1-methyl-6-(trifluoromethyl)-, 2-chloronicotinate (ester)] |  |  |  |  |  | 0.0 | 2.0 | 5.0 | 6.0 | 7.0 | 9.0 | 9.0 | 9.0 | 6.0 | 9.0 | 9.0 | 9.0 | 0.0 | 3.0 | 5.0 | CYPSE herbicidal rating [2, 8]: 3.0; CYPSE herbicidal rating [2, 10]: 3.0; SAGPY herbicidal rating (Sagittaria pygmaea, L.; [11]): 6.0
8 | Cn1c(C(F)(F)F)cc(=O)n(-c2ccc3snc(COC(=O)CCl)c3c2)c1=O [Example 368, 2,4(1H,3H)-Pyrimidinedione, 3-[3-(hydroxymethyl)-1,2-benzisothiazol-5-yl]-1-methyl-6-(trifluoromethyl)-, chloroacetate (ester)] | 3.0 | 7.0 | 7.0 | 8.0 | 4.0 |  |  |  |  |  |  |  |  |  |  |  |  |  |  |  | herbicidal effect rating, CYPSE [2, 4]: 0.0; herbicidal effect rating, CYPSE [2, 6]: 7.0; herbicidal effect rating, CYPSE [2, 7]: 8.0; herbicidal effect rating, MOOVA [3, 4]: 9.0; herbicidal effect rating, MOOVA [3, 5]: 9.0; herbicidal effect rating, MOOVA [3, 6]: 9.0; herbicidal effect rating, MOOVA [3, 7]: 9.0; herbicidal effect rating, CYPIR (Cyperus iria; [4]): 7.0; herbicidal effect rating, CYPIR (Cyperus iria; [5]): 9.0; herbicidal effect rating, CYPIR (Cyperus iria; [6]): 9.0; herbicidal effect rating, CYPIR (Cyperus iria; [7]): 9.0; herbicidal effect rating, SAGPY (Sagittaria pygmaea, L.; [4]): 5.0; herbicidal effect rating, SAGPY (Sagittaria pygmaea, L.; [5]): 6.0; herbicidal effect rating, SAGPY (Sagittaria pygmaea, L.; [6]): 9.0; herbicidal effect rating, SAGPY (Sagittaria pygmaea, L.; [7]): 9.0
